Measured values published in patent US20170064958A1, “Active compound combinations having insecticidal properties” (BAYER CROPSCIENCE AKTIENGESELLSCHAFT, priority 2014, published 2017).

Key:
Assay type in all cases: in vivo
[1] = tested on: two spotted spidermite (Tetranychus urticae); assay: Tetranychus urticae - spray test OP-resistant; details: single active ingredient, French bean leaf disks; for Efficacy in % after 2d: 0.8 g ai/ha, mortality after 2 d
Method: (§1) To produce a suitable preparation of active compound, 1 part by weight of active compound is mixed with the stated amount of solvents and is diluted with water, containing an emulsifier concentration of 1000 ppm, to the desired concentration. To produce a suitable preparation of a spore suspension the spores are diluted with emulsifier containing water to the desired concentration. Further test concentrations are prepared by dilution with emulsifier containing water.
French bean (Phaseolus vulgaris) leaf disks which are heavily infested with all stages of the two spotted spidermite (Tetranychus urticae), are sprayed with a preparation of the active ingredient of the desired concentration.
After the specified period of time, mortality in % is determined 100% means all spider mites have been killed and 0% means none of the spider mites have been killed. The mortality values determined thus are recalculated using the Colby-formula (see sheet 1).

[2] = tested on: mustard beetle larvae (Phaedon cochleariae); assay: Phaedon cochleariae - spray test; details: single active ingredient, 0.16 g ai/ha, mortality after 6 d, Chinese cabbage leaf disks
Method: as §1
Chinese cabbage (Brassica pekinensis) leaf disks are sprayed with a preparation of the active ingredient of the desired concentration. Once dry, the leaf disks are infested with mustard beetle larvae (Phaedon cochleariae).
After the specified period of time, mortality in % is determined. 100% means all beetle larvae have been killed and 0% means none of the beetle larvae have been killed. The mortality values determined thus are recalculated using the Colby-formula (see sheet 1).

[3] = tested on: green peach aphid (Myzus persicae); assay: Myzus persicae - spray test; details: single active ingredient, 0.8 g ai/ha, mortality after 1 d, Chinese cabbage leaf disks
Method: as §1
Chinese cabbage (Brassica pekinensis) leaf disks infected with all instars of the green peach aphid (Myzus persicae), are sprayed with a preparation of the active ingredient of the desired concentration.
After the specified period of time, mortality in % is determined 100% means all aphids have been killed; 0% means none of the aphids have been killed. The mortality values determined thus are recalculated using the Colby-formula (see sheet 1).

## Cc1c(COC(=O)[C@@H]2[C@H](/C=C(\Cl)C(F)(F)F)C2(C)C)cccc1-c1ccccc1 (racemic) [Bifenthrin]
[1]
  Efficacy in % after 2d: 0%

## CC1(C)[C@H](C(=O)O[C@H](C#N)c2cccc(Oc3ccccc3)c2)[C@@H]1/C=C(\Cl)C(F)(F)F (racemic) [Lambda- Cyhalothrin, lambda-Cyhalothrin]
[2]
  Efficacy in % after 6d: 33%

## CC1(C)[C@H](C(=O)O[C@H](C#N)c2cccc(Oc3ccccc3)c2)[C@@H]1/C=C\C(=O)OC(C(F)(F)F)C(F)(F)F [Acrinathrin]
[3]
  Efficacy in % after 1d: 70%
[1]; 0.16 g ai/ha, mortality after 6 d
  Efficacy in % after 6d: 0%
[1]
  Efficacy in % after 2d: 0%

## CC1(C)[C@H](C(=O)O[C@H](C#N)c2cccc(Oc3ccccc3)c2)[C@@H]1C=C(Br)Br [Deltamethrin]
[1]
  Efficacy in % after 2d: 0%
